The subject of data set [1] is baboon vascular grafts (graft intimal hyperplasia). Nature of the data set: Inhibition of graft intimal hyperplasia by polyamine infusion, baboon aortoiliac bypass graft model. It counts as in vivo. On the set-up: thickness of grafts, Left Proximal Ave. / thickness of grafts, Left Distal Ave. (Treated site): unit not given here. As to conditions: for thickness of grafts, Left Distal Ave. (Treated site): left distal anastomosis infused with polyamine; for thickness of grafts, Left Distal Ave. (Treated site) / thickness of grafts, Left Proximal Ave.: pump 2.5 ul/hr for 28 days, one animal per line; for thickness of grafts, Left Proximal Ave.: polyamine-infused left graft, proximal anastomosis upstream of polyamine administration. Here is the method: The procedure of Chen et al., Journal of Vascular Surgery 31(2):354 (2000) was used to prepare the animals. Briefly, baboons underwent bilateral aortoiliac bypass grafting with expanded polytetrafluoroethylene grafts. The distal anastomosis of one graft (the left graft) was infused with polyamine; the distal anastomosis of the contralateral graft (right graft) was infused with placebo (saline). The drugs were infused with the Alzet 2ML4 pump at a flow rate of 2.5 ul/hr for 28 days. For administration of CGC-11093, the pump contained 4.4 mg/ml (10 mM) drug and delivered 266 ug/day (7.5 mg in 28 days). For administration of CGC-11159, drug concentration was also at 10 mM; the pump delivered 646.2 ug/day (18.1 mg in 28 days). After 28 days the grafted vessels were harvested and analyzed. All anastomosis/graft samples were harvested by in vivo pressure-perfusion fixation with 10% Neutral Buffered Formalin (NBF) and fixed further overnight in 10% NBF. Samples were cut into several sections (noting proximal and distal) and marked with green dye for standard overnight processing. Processed samples were embedded in paraffin sectioned at […] intervals and stained with conventional hematoxylin and eosin (H&E). For morphometric measurements and analysis, H&E sections were imaged with a Nikon EFD-3 microscope with darkfield and polarized light epiluminescence and an RT Slider Diagnostic Camera. Graft and vessel sections were analyzed with respect to total neointimal area and maximal thickness. Morphometric analysis was performed using Image-Pro Plus 4.5 (Media Cybernetics) software. All images were digitized and archived.

In data set [2] the test system is pig femoral AV grafts (graft vein anastomosis/proximal vein, venous neointimal hyperplasia). The experiment in a line: Histopathology of PTA-injured porcine arteriovenous (AV) grafts with perivascular drug infusion. Type of data set: in vivo. As to conditions: for decrease in luminal stenosis versus placebo: perivascular injections, summary of results, dose not given. Here is the method: This example was performed to determine the effect of injections of CGC-11093 and CGC-11159 on the vasculature of pigs following arteriovenous grafting. The histopathology of reactive and inflammatory responses of pig femoral AV grafts 14 days after Mercator Microsyringe infusion with 1 mg CGC-11093 (6 sites), 10 mg CGC-11093 (2 sites), 10 mg CGC-11159 (8 sites), or placebo saline injection (8 sites) in conjunction with percutaneous transluminal angioplasty (PTA) of the graft vein anastomosis and the proximal vein was assessed.
The methods used were as follows: all graft-vein anastomosis/proximal vein (GVA/PV) sites were subjected to angioplasty and perivascular injection via Mercator Microsyringe. Angioplasty was performed and drugs were infused 14 days after graft implant; animals were sacrificed 14 days later for histopathological examination. A total of 24 GVA/PV sites were evaluated. Six sites received 1 mg of CGC-11093; two sites received 10 mg CGC-11093, eight sites received 10 mg of CGC-11159, and eight sites received placebo injection with saline. All injections were performed in conjunction with percutaneous transluminal angioplasty (PTA) of the GVA and PV.
After 14 days, the graft vein anastomosis sites (GVA/PV) were excised en bloc and perfused with formalin. Sectioning of the graft vein anastomosis was performed as follows: briefly, tissue sections were taken at approximately 5 mm intervals through the proximal vein (PV). Tissue sections were taken at approximately 3 mm intervals through the graft-vein anastomosis (GVA) site. Sections were taken at approximately […] intervals through the distal vein (DV). All tissues were routinely processed, embedded in paraffin, sectioned at 5 microns and stained with hematoxylin and eosin for histopathologic evaluation. Numerous histologic sections through each PV, DV and GVA were evaluated. Each section was labeled with the letter P, G, or D (P=proximal vein, G=graft vein anastomosis, and D=Distal vein) and with a corresponding number to indicate proximity to the graft vein anastomosis.
The histopathologic evaluation included a general description of relevant features regardirig tissue reaction and inflammation around the graft vein anastomosis (GVA) and through the proximal femoral vein (PV). Histopathologic features including inflammation, fibrosis, angiogenesis and venous neointimal hyperplasia (VNH) within the GVA and PV were assessed. Attempts were made to differentiate between histopathologic changes attributed to the surgical procedure, secondary affects of GVA, angioplasty and perivascular injection of drug via Mercator Microsyringe.
Initial histopathologic evaluation was performed on all tissues to define the common inflammatory and reactive changes in all specimens. An overall general description of changes in sections of PV and GVA was made. An estimate of the percent occlusion of the most severely affected segment in both the PV and GVA was made. Two precise, perpendicular cross sectional measurements of the lumen were made in the most severely affected section of the PV. In the GVA a single luminal diameter was measured in the most severely affected section. Next, a qualitative assessment of overall severity of VNH, as well as inflammation within the VNH and degree of angiogenesis within the VNH was made for both the PV and the GVA. Additionally, a general description of the overall perivascular tissue reaction around the PV and the GVA was recorded. Lastly, unique, and potentially significant, pathologic features were documented. Unique pathologic features generally included interpretation of the overall severity of the changes, presence or absence of an inflamed seroma, or presence of thrombosis or infection in the GVA or PV. When assessing the degree or severity of a certain histopathologic change (i.e. severity of VNH, etc) a qualitative scoring method was used. A score of 0=absent, 1=minimal, 2=mild, 3=moderate, 4=severe.

The source of these data is patent US20070232677A1, “Treatment and prevention of vascular hyperplasia using polyamine and polyamine analog compounds” (priority 2006, published 2007).

“Also recorded” adds a separate entry of the source.

In the case of `CCCCCNCCCCNCC1CC1CNCCCCNCC` (racemic) [CGC-11302, N-{2-[(4-Ethylamino-butylamino)-methyl]-cyclopropylmethyl}-N′-pentyl-butane-1,4-diamine], in data set [1], the “thickness of grafts, Left Distal Ave. (Treated site)” value (from here on “thickness of grafts … (Treated site)”) is listed as 0.822 and the “thickness of grafts, Left Proximal Ave.” value came out at 1.047.
On to `CCNCCCCNCC1CC1CNCCCCNCC` (stereo not shown) [CGC-11093], for which, in data set [2] (1 mg), the “degree of VNH angiogenesis, summary” value is “minimal to absent VNH angiogenesis”; the “histopathologic features/changes, summary” value was “fewer significant or potentially deleterious histopathologic features; also recorded: less severe histopathologic changes”; the “severity of VNH inflammation, summary” value is reported as “minimal VNH inflammation”; the “severity of overall VNH in PV and GVA, summary” value is “minimal amount of VNH in both the PV and GVA”. The “vascular occlusion, summary” value in data set [2] (1 mg, compared with other animals in the study) was “less severe vascular occlusion than other animals in the study”. Moreover, the “decrease in luminal stenosis versus placebo” value in data set [2] is on record as 49.2%. Moreover, in data set [1], the “thickness of grafts … (Treated site)” value came to 1.072 and the “thickness of grafts, Left Proximal Ave.” value worked out at 0.499.
On to `CCNCCCCNCC1CC1CNCCCCNCC` (stereo not shown) [CGC-11098], for which, in data set [1], the “thickness of grafts … (Treated site)” value worked out at 1.778 and the “thickness of grafts, Left Proximal Ave.” value was found to be 0.938.
As to `CCNCCCCNCCCCNCCCCNCCCCNCCCCNCCCCNCCCCNCCCCNCCCCNCC` [CGC-11159, CH3CH2—NH—(CH2CH2CH2CH2—NH—)9—CH2CH3], in data set [2] (10 mg), the “degree of VNH angiogenesis in PV and GVA, summary” value was “greater degree of VNH angiogenesis in the PV and GVA”; the “incidence of GVA/PV thrombosis” value is “higher incidence of GVA/PV thrombosis”; the “luminal diameter of PV, summary” value is recorded as “more likely to have a smaller luminal diameter”; the “perivascular tissue reaction (inflammation around the graft)” value was “prominent, nodular lymphofollicular inflammation forming a rim surrounding the outside surface of the graft; also recorded: prominent, nodular to coalescing lymphocytic inflammation around the implanted graft material; also recorded: more prominent abnormal perivascular tissue reactions”. In data set [2] (10 mg), the “severity of overall VNH in PV and GVA, summary” value is “more severe VNH in both the PV and GVA”; the “unique histopathologic features, summary” value is “often developed luminal thrombosis of both the PV and GVA as well as prominent lymphofollicular inflammation surrounding the graft material”. Moreover, the “sites that developed fibrin thrombosis within the graft, with some degree of vascular and/or graft occlusion” value in data set [2] (10 mg, eight sites treated) is reported as “five of eight”. In data set [2] (10 mg, most animals, generally associated with thrombosis of the graft), the “luminal occlusion or stenosis of the PV and GVA, summary” value was “more severe luminal occlusion or stenosis of the PV and GVA”. Further, the “severity of VNH inflammation, summary” value in data set [2] (10 mg, probably associated with thrombus formation) is given as “greater severity of VNH inflammation”. For the same compound, the “decrease in luminal stenosis versus placebo” value in data set [2] worked out at 22.6%. Also, the “decrease in average maximal thickness of hyperplasia in the vascular graft” value in data set [1] (left distal anastomosis compared with placebo-treated grafts (right proximal and distal anastomoses), 10 mM, 646.2 ug/day for 28 days) is listed as around 50%. Besides, in data set [1], the “thickness of grafts … (Treated site)” value is 0.336 and the “thickness of grafts, Left Proximal Ave.” value turned out to be 0.695.
